Measured values published in US10253060B2, “Terpenoid derivatives” (Daiichi Sankyo Company, Limited, priority 2013, dated 2019).

Key:
[1] = system: NQO1; assay: NQO1 assay in Hepa1c1c7 cells; type: cell-based, mouse; conditions: approx. 48 hours, mean of 3 wells
Method: Hepa1c1c7 cells (mouse hepatic cell line, ATCC, catalog No. CRL-2026) were cultured (5% CO2, 37° C.). A DMEM (Life Technologies Japan Ltd., catalog No. 11965-092) medium also containing 10% inactivated FBS was used. The medium contained 100 units/mL (final concentration) penicillin and 100 μg/[…] (final concentration) streptomycin. The NQO1 assay was conducted according to previous reports (Anal Biochem 1998; 169: 328-; and Methods Enzymol 2004; 382: 243-).
The Hepa1c1c7 cells were seeded at 10000 cells/well in a 96-well plate. The amount of the medium was 100 μL. Approximately 24 hours later, the medium was replaced with a medium containing CDDO-Me or each of terpenoid derivatives A to G, followed by further culture for approximately 48 hours. A lysis solution (a solution containing 2 mM EDTA and 0.8% digitonin), a reaction solution (a solution containing 0.025 M of tris-HCl, 0.067% of albumin, 0.01% of Tween-20, 2 U/mL of glucose-6-phosphate dehydrogenase, 5 μM of flavin adenine dinucleotide, 1 […], 30 μM of nicotinamide adenine dinucleotide phosphate, 0.03% of 3-(4,5-dimethyl-2-thiazolyl)-2,5-diphenyltetrazolium bromide (MTT), and 50 μM of menadione), and a stop solution (a solution containing 0.3 mM dicumarol and 5 mM potassium dihydrogen phosphate, pH 7.4) were prepared. After removal of the medium, 50 μL of the lysis solution was added thereto, and the mixture was left standing at 37° C. for 10 minutes. The reaction mixture was further shaken at room temperature for 10 minutes.
Two hundred μL of the solution was added thereto, and the mixture was left standing at room temperature for 5 minutes. Fifty μL of the stop solution was added thereto, and the absorbance at 490 nm was measured.
The test results were analyzed using Prism (GraphPad Software, Inc., Ver. 5) to calculate the CD value of the concentration at which the activity of NQO1 was increased 2-fold. Each group consisted of 3 wells and indicated as a mean of CD values.

[2] = system: Nqo1 gene; assay: Effect of inducing Nrf2 target gene (in vivo): Nqo1 gene expression in mouse kidney after oral administration; set-up: species or system C57 Black 6 mouse; conditions: for Nqo1 gene expression level: solvent group defined as 1, mean ± SD, 6 mice; for induction of the Nqo1 gene (in words): oral, derivative B at a dose of 1 mg/kg
Method: The Nqo1 gene was used as the Nrf2 target gene.
Respective suspensions of terpenoid derivative B of the present invention obtained in Example 1 and CDDO-Me were prepared using 0.5 w/v % methylcellulose solution 400 cP (Wako Pure Chemical Industries, Ltd., catalog No. 133-14255) as a solvent. Each suspension was orally administered once a day for 12 consecutive days at a dose of 1, 3, or 10 mg/kg with administration volume of 10 mL/kg to each C57 Black 6 mouse (Charles River Laboratories Japan, Inc., male, 8 weeks old at the time of receipt, 10 weeks old at the start of the experiment). On the next day of the final administration, the mouse was euthanized, and the kidney was sampled. From the sampled kidney, mRNA was collected using an extraction kit (manufactured by Qiagen N.V., RNeasy Mini Kit, catalog No. 74106). From the obtained mRNA, cDNA was prepared using a cDNA synthesis kit (manufactured by GE Healthcare Life Sciences, First-Strand cDNA Synthesis Kit). The obtained cDNA was amplified using a reagent (manufactured by Applied Biosystems, Inc., TaqMan(R) Gene Expression Master Mix (catalog No. 4369016)) and a probe, and subjected to real-time quantitative PCR (Real-time PCR HT7900 manufactured by Applied Biosystems, Inc. was used). […] Each group consisted of 6 mice and was indicated as a mean and standard deviation.

[3] = system: Hmox1 gene; assay: Effect of inducing Nrf2 target gene (in vitro): Hmox1 gene expression in ARPE-19 cells, real-time quantitative PCR; type: cell-based, human; conditions: for Hmox1 gene expression level (relative value): approx. 6 hours, 0 nM defined as 1.0, mean ± SD, 3 wells; for concentration at which the expression level of the Hmox1 gene was increased 2-fold / concentration at which the expression level of the Hmox1 gene was increased 5-fold: analysed with Prism
Method: The Hmox1 gene was used as the Nrf2 target gene.
The expression level of the Hmox1 gene induced by the addition of a test compound to ARPE-19 cells (human retinal pigment epithelium cell line, ATCC, catalog No. CRL-2302) was measured to examine the effect of inducing the Hmox1 gene by the test compound. The test compound was terpenoid derivative B of the present invention obtained in Example 1 and CDDO-Me as Comparative Example.
The ARPE-19 cells were cultured (5% CO2, 37° C.) using a DMEM/F12 (Life Technologies Japan Ltd., catalog No. 11330-032) mixed medium containing 10% inactivated FBS. The medium contained 100 units/mL (final concentration) penicillin and 100 μg/mL (final concentration) streptomycin.
The ARPE-19 cells were seeded at 60000 cells/well in a 24-well plate. The amount of the medium was 500 μL. Approximately 24 hours later, the medium was replaced with a medium containing terpenoid derivative B of the present invention obtained in Example 1 or CDDO-Me, and the culture was continued. Approximately 6 hours later, mRNA was collected from the ARPE-19 cells using an extraction kit (manufactured by Qiagen N.V., RNeasy Mini Kit, catalog No. 74106). From the obtained mRNA, cDNA was prepared using a cDNA synthesis kit (manufactured by GE Healthcare Life Sciences, First-Strand cDNA Synthesis Kit). The obtained cDNA was amplified using a reagent (manufactured by Applied Biosystems, Inc., TaqMan(R) Gene Expression Master Mix (catalog No. 4369016)) and a probe, and subjected to real-time quantitative PCR (Real-time PCR HT7900 manufactured by Applied Biosystems, Inc. was used).
When the concentration of the test compound was 0 nM, the expression level of the Hmox1 gene was defined as 1.0±0.0. The expression level of the Hmox1 gene at each concentration of the test compound was indicated as a relative value. Each group consisted of 3 wells and was indicated by a mean and standard deviation.
The activity ratios of terpenoid derivative B of the present invention to CDDO-Me were 2747 times and 92 times.

[4] = 1 mg/kg oral once a day for 12 days
[5] = 3 mg/kg oral once a day for 12 days
[6] = 10 mg/kg oral once a day for 12 days

COC(=O)[C@]12CCC(C)(C)C[C@H]1[C@H]1C(=O)C=C3[C@@]4(C)C=C(C#N)C(=O)C(C)(C)[C@@H]4CC[C@@]3(C)[C@]1(C)CC2 [CDDO-Me, methyl 2-cyano-3,12-dioxooleana-1,9-dien-28-oate, reference compound]
CD value (concentration at which the activity of NQO1 was increased 2-fold) [1]: 1.0 nM
Nqo1 gene expression level [2, 4]: 1.0 ± 0.0
Nqo1 gene expression level [2, 5]: 1.0 ± 0.1
Nqo1 gene expression level [2, 6]: 1.0 ± 0.1
induction of the Nqo1 gene (in words) [2]: not confirmed to induce the Nqo1 gene
Hmox1 gene expression level (relative value) ([3]; 0.00001 nM test compound): 1.1 ± 0.0
Hmox1 gene expression level (relative value) ([3]; 0.001 nM test compound): 1.0 ± 0.1
Hmox1 gene expression level (relative value) ([3]; 0.03 nM test compound): 1.4 ± 0.0
Hmox1 gene expression level (relative value) ([3]; 0.3 nM test compound): 1.4 ± 0.1
Hmox1 gene expression level (relative value) ([3]; 3 nM test compound): 2.1 ± 0.3
Hmox1 gene expression level (relative value) ([3]; 30 nM test compound): 12.2 ± 2.6
concentration at which the expression level of the Hmox1 gene was increased 2-fold [3]: 2.5 nM
concentration at which the expression level of the Hmox1 gene was increased 5-fold [3]: 11 nM

COC(=O)[C@@]12CC[C@]3(C)[C@H](C(=O)C=C4[C@@]5(C)[C@H]6O[C@@]6(C#N)C(=O)C(C)(C)[C@@H]5CC[C@]43C)[C@@H]1CC(C)(C)[C@@H](O)C2 [terpenoid derivative B]
CD value (concentration at which the activity of NQO1 was increased 2-fold) [1]: 0.3 nM
Nqo1 gene expression level [2, 4]: 1.2 ± 0.1
Nqo1 gene expression level [2, 5]: 1.8 ± 0.2
Nqo1 gene expression level [2, 6]: 2.3 ± 0.2
induction of the Nqo1 gene (in words) [2]: confirmed to induce the Nqo1 gene
activity ratio to CDDO-Me (2-fold Hmox1 increase concentration) [3]: 2747 times
activity ratio to CDDO-Me (5-fold Hmox1 increase concentration) [3]: 92 times
Hmox1 gene expression level (relative value) ([3]; 0.00001 nM test compound): 1.3 ± 0.0
Hmox1 gene expression level (relative value) ([3]; 0.001 nM test compound): 0.9 ± 0.1
Hmox1 gene expression level (relative value) ([3]; 0.03 nM test compound): 5.4 ± 0.1
Hmox1 gene expression level (relative value) ([3]; 0.3 nM test compound): 6.1 ± 0.5
Hmox1 gene expression level (relative value) ([3]; 3 nM test compound): 10.4 ± 1.5
Hmox1 gene expression level (relative value) ([3]; 30 nM test compound): 20.8 ± 1.9
concentration at which the expression level of the Hmox1 gene was increased 2-fold [3]: 0.00091 nM
concentration at which the expression level of the Hmox1 gene was increased 5-fold [3]: 0.12 nM
